Experimental data from patent US20240398885A1, “FULL LIGHT REPAIR” (Coty Inc., priority 2021, published 2024).

Experiments:
[1] = system: normal human keratinocytes; test: Comet assay with formamidopyrimidine DNA glycosylase (FPG) to detect oxidized DNA-bases after light exposure; assay type: cell-based; settings: UVA, IR and visible light; creatine included in the compositions
Procedure: (§1) Experiments were carried out using the protocol discussed in Chamayou-Robert et al. Photodermatol Photoimmunol Photomed. 2021; 00:1-7. Briefly, experiments were performed on normal human keratinocytes. Cells were exposed to either UVB (280-315 nm), UVA (315-400 nm), visible light, blue light (400-500 nm), or infra-red (760 nm-1 mm) for a time to induce DNA damage. Cells were then treated with the compositions indicated in FIGS. 3(a), 3(b) and 4(a), 4(b) and 4(c), respectively and DNA damage was analyzed by using the comet assay (Wischermann et al. Mutat Res. 2007; 630:122-128; Jean et al. Photochem Photobiol. 2007; 74 (3): 417-423; Azqueta et al. Mutagenesis. 2013; 28:271-277; Chamayou-Robert et al. Photoderm Photoimmun. 2021; 00:1-7) with the use of specific enzymes, formamidopyrimidine DNA glycosylase (FPG) or T4 endonuclease V in order to detect oxidized DNA-bases and cyclobutane pyrimidine dimers (CPD) respectively.
(§2) Compositions comprising creatine in an amount of 0.5% w/w, Micrococcus Lysate in an amount of 0.0005% w/w and Arabidopsis Thaliana extract in an amount of 0.0005% w/w were tested in this example.

[2] = system: normal human keratinocytes; test: Comet assay with T4 endonuclease V to detect cyclobutane pyrimidine dimers (CPD) after light exposure; assay type: cell-based; settings: UVB and visible light; creatine included in the compositions
Procedure: as §1, §2

CN(CC(=O)O)C(=N)N [creatine, Creatine]
effect on the DNA repair of oxidative DNA damage induced by light [1]: boosting effect
effect on the DNA repair of CPD damage induced by light [2]: boosting effect
